The subject of one data set is CaSki cells. In words: AnnexinV/PI flow cytometry apoptosis assay. Conditions: 20 μM, 24 h. (In general: In flow cytometry, cells or beads pass a laser one at a time.)
Data set [1] has as its system HeLa cells. Briefly: AnnexinV/PI flow cytometry apoptosis assay. As to conditions: 20 μM, 24 h.
Data set [2] deals with HeLa cells. Briefly: Cell numbers. Format: cell-based. Conditions: 20 μM, 24 h.
For data set [3], the system named is VHR, PTP1B, CD45, HePTP, Shp2, and YopH. The class given is biochemical.
The target in the next data set is VHR (Homo sapiens, UniProt P51452). Briefly: Ki determination, Michaelis-Menten kinetics with pNPP. The class given is biochemical.
Sequence of VHR (P51452 whole entry): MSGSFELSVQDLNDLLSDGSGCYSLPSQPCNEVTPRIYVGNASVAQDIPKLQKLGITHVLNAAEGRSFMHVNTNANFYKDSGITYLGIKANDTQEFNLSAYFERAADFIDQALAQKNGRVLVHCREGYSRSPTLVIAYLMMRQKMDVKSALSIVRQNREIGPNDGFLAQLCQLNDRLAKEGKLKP

The values that follow come from publication PMC2790023 (Journal of medicinal chemistry, 2009).

Structures are written as SMILES. Entries after “also recorded” stand apart in the source; their conditions may differ.

In the case of `O=C1/C(=C/c2cn(-c3ccccc3)nc2-c2ccc(OCc3ccccc3Cl)cc2)SC(=S)N1CCS(=O)(=O)O` [SA2], the “Percentage of AnnexinV/PI negative cells versus vehicle” value in the data set on CaSki cells and in the data set on HeLa cells [1] was “no difference” throughout.

On to `O=C1/C(=C/c2cn(-c3ccccc3)nc2-c2ccc(OCc3ccccc3F)cc2)SC(=S)N1CCS(=O)(=O)O` [SA3], for which the “Percentage of AnnexinV/PI negative cells versus vehicle” value with CaSki cells and in the data set with HeLa cells [1] was “no difference” throughout. Besides, the “HeLa cell numbers, percentage of the DMSO control” value in the data set on HeLa cells [2] was “less than 50%”.

On to `O=C1/C(=C/C=C/c2ccccc2)SC(=S)N1CCS(=O)(=O)O` [compound 1, 2-((Z)-4-oxo-5-((E)-3-phenylallylidene)-2-thioxothiazolidin-3-yl)ethane-sulfonic acid], for which, in data set [3], the “Selectivity for VHR in counter screen” value is given as “selectively inhibiting VHR; also recorded: selective for VHR”. Moreover, the “Inhibition pattern (Lineweaver-Burk plot)” value at VHR is “competitively inhibited VHR; also recorded: clear competitive inhibition pattern”. For the same molecule, the affinity at VHR (Ki, pNPP substrate) corresponds to a Ki of 0.809 µM.

For `COc1ccc(OC)c2c1C(=O)c1ccccc1C2=O` [compound 8, 1,4-dimethoxyanthracene-9,10-dione], the “Selectivity for VHR in counter screen” value in data set [3] was “selectively inhibiting VHR; also recorded: selective for VHR”.
